Source: patent US6136841A, “3-, 8-substituted deuteroporphyrin derivatives, pharmaceutical agents that contain the latter, process for their production and their use in photodynamic therapy and MRI diagnosis” (Schering Aktiengesellschaft, priority 1998, dated 2000)
Read-outs that look alike come from different tables or passages of the source.

Tests used:
[1] = tested on: human colon carcinoma (HT-29 P9); assay: Phototoxicity on a tumor cell culture, xenon lamp irradiation, live-dead coloration (Example 11); type: cell-based; details: irradiated with xenon lamp 8.5 k Lux, UV filter, three days; PE = porphyrin unit; 4320 min; read-out: ED50 (concentration at which about half of the cells are no longer vital)
Method: Determination of the phototoxicity (ED50) of compound Ic of WO 94/07894 (I) and of the title compound of Example 1d) (II) on a tumor cell culture.
In 25 ml culture flasks, a cell culture of human colon carcinoma (HT-29 P9) is reproduced for 3 days at 37° C. The cultures are divided into two groups and mixed with solutions of test substances (50 mmol of porphyrin unit (PE)/l, diluted with fetal calf serum) in increasing amounts (0; 1.5; 5; 8.5; 12; 15.5; 19 μmol of PE/l). The samples are irradiated for three days with a xenon lamp (8.5 k Lux, UV filter). The first group daily received 2 irradiations of 30 minutes each at an interval of 4 hours. For the rest of the time, it remains in the dark in an incubator. The second group is not exposed to light and remains in the dark in the incubator for the entire time. On the fourth day, the cell growth is determined by live-dead coloration and counting with the counting chamber.
The table indicates the concentration at which about half of the cells are no longer vital. (I: Example 1c of DE 4232925; II: Title compound of Example 1d)

[2] = tested on: skin; details: in vivo; cited from earlier work
[3] = tested on: human colon carcinomas (HT-29 P9); type: in vivo, hairless mouse
Method: Phototoxic effect of the compound [mu-16,16'-(7,12-diethyl-3,8,13,17-tetramethylporphyrin-2,18-diyl]bis[3,6,9-tris(carboxymethyl)-11,14-dioxo-3,6,9,12,13-pentaazahexadecanoato]}(8-)]}digadolinato(2-), disodium (Example 1c of WO 94/07894) on a tumor of a hairless mouse
Intracutaneous human colon carcinomas (HT-29 P9) are implanted in the sides of 15 hairless mice that weigh 24-30 g. The tumors are allowed to grow to a size of 5-10 mm. […] On days 1 and 3, i.v. substance is administered to the anesthetized animals. In this case, the animals of group 1 receive 2×130 μl of 0.9% NaCl solution, and they remain in the dark for the entire time. The animals of the second group receive 2×130 μl of a 100 mmol solution of the title compound, which corresponds to a dose of 2×0.5 mmol/kg of body weight. In each case, 30 minutes after administration, the animals are exposed to the light of a xenon lamp (8.5 k Lux, 1 cm glass as a UV filter) for 45 minutes. They spend the rest of the test time in the dark. 2×130 μl of a 100 mmol solution of test substance is also injected into the animals of the third group. The animals remain in the dark, however, for the duration of the test. On the 6th day after the substance is administered, the animals are sacrificed in ether. The tumor is measured, examined macroscopically, removed and tested histologically. […] In group 1, the range is 6.5×7.7 mm^2 up to 8.6×12.0 mm^2. In the very large tumors, which are fed by numerous blood vessels, small lesions of the skin (possibly bite marks) and in some cases deeper bleeding are evident in the center. […] With the animals of group 2, the following observations are made: […]

Row | Compound | IC50 [1] [µM] | Duration of skin sensitization [2] | Histology: diameter of multifocal central necrosis ([3]; group 2, 2×0.5 mmol/kg i.v. + light, three non-eroded tumors) | Phototoxic action (overall) ([3]; group 2, substance + light) | Tumor growth into the muscle layer ([3]; group 2, substance + light) | Tumor size / tumor growth at end of test ([3]; group 2, substance + light) | Histology: diameter of multifocal central necrosis ([3]; group 3, 2×130 μl of 100 mmol solution, kept in the dark) | Tumor growth ([3]; group 3, substance, kept in the dark)
1 | {Mu-[(16,16'-[zinc(II)-7,12-diethyl-3,8,13,17-tetramethylporphyrin-2,18-diyl]-bis[3,6,9-tris(carboxymethyl)-11,14-dioxo-3,6,9,12,13-pentaazahexadecanoato]}(8-)]}-digadolinato(2-), disodium [Example 1d] | 5.1 | – | – | – | – | – | – | –
2 | Oc1cccc(-c2c3nc(c(-c4cccc(O)c4)c4ccc([nH]4)c(-c4cccc(O)c4)c4nc(c(-c5cccc(O)c5)c5ccc2[nH]5)CC4)C=C3)c1 [m-THPC] | – | ~ 3 weeks | – | – | – | – | – | –
3 | [mu-16,16'-(7,12-diethyl-3,8,13,17-tetramethylporphyrin-2,18-diyl]bis[3,6,9-tris(carboxymethyl)-11,14-dioxo-3,6,9,12,13-pentaazahexadecanoato]}(8-)]}digadolinato(2-), disodium [Example 1c of WO 94/07894] | 6.4 | – | 1.5-2.1 mm | strong phototoxic action | The tumor did not grow into the muscle layer | Comparative measurement of tumor size was no longer possible in view of the extent of the destruction of the tumors. Tumor growth took place, if at all, only in the periphery and in deep tumor layers | 0.1-0.8 mm | The tumors continue to fluorish
